Several values for one entry are separate records, joined by “and”; a condition that tells them apart may be missing. Equal entries are not always repeated.
Details: Liquid, Vibrating tube method

CCOC(F)(C(F)(F)C(F)(F)C(F)(F)F)C(F)(C(F)(F)F)C(F)(F)F (stereo not given) [2-trifluoromethyl-3-ethoxydodecafluorohexane]
Details	mass density
350 K, 40000 kPa	1622.9 kg/m3 and 1622.8 kg/m3
350 K, 40010 kPa	1622.7 kg/m3
350 K, 44990 kPa	1632.7 kg/m3 and 1632.5 kg/m3
350 K, 45000 kPa	1632.5 kg/m3
350 K, 49990 kPa	1641.9 kg/m3 and 1641.7 kg/m3
350 K, 50000 kPa	1641.8 kg/m3
370 K, 490 kPa	1465.7 kg/m3 and 1465.9 kg/m3
370 K, 500 kPa	1466 kg/m3
370 K, 1000 kPa	1468.6 kg/m3 and 1468.4 kg/m3 and 1468.5 kg/m3
370 K, 1990 kPa	1473.6 kg/m3 and 1473.5 kg/m3
370 K, 2000 kPa	1473.4 kg/m3
370 K, 2990 kPa	1478.5 kg/m3
370 K, 3000 kPa	1478.2 kg/m3 and 1478.5 kg/m3
370 K, 3990 kPa	1483.1 kg/m3
370 K, 4000 kPa	1483.1 kg/m3 and 1483 kg/m3
370 K, 4990 kPa	1487.6 kg/m3
370 K, 5000 kPa	1487.5 kg/m3 and 1487.6 kg/m3
370 K, 10000 kPa	1508.2 kg/m3 and 1507.9 kg/m3 and 1508.1 kg/m3
370 K, 14990 kPa	1526 kg/m3 and 1525.8 kg/m3
370 K, 19990 kPa	1541.7 kg/m3 and 1541.8 kg/m3
370 K, 20000 kPa	1541.9 kg/m3
370 K, 25000 kPa	1556.3 kg/m3 and 1556.1 kg/m3 and 1556.2 kg/m3
370 K, 30000 kPa	1569.5 kg/m3 and 1569.2 kg/m3 and 1569.4 kg/m3
370 K, 34990 kPa	1581.5 kg/m3
370 K, 35000 kPa	1581.7 kg/m3 and 1581.4 kg/m3
370 K, 40000 kPa	1593 kg/m3 and 1592.7 kg/m3 and 1592.8 kg/m3
370 K, 45000 kPa	1603.6 kg/m3 and 1603.3 kg/m3 and 1603.4 kg/m3
370 K, 49990 kPa	1613.2 kg/m3 and 1613.4 kg/m3
370 K, 50020 kPa	1613.6 kg/m3
390 K, 490 kPa	1417.9 kg/m3
390 K, 500 kPa	1417.8 kg/m3 and 1417.7 kg/m3
390 K, 990 kPa	1420.9 kg/m3 and 1421.1 kg/m3
390 K, 1000 kPa	1421.1 kg/m3
390 K, 1990 kPa	1427.2 kg/m3 and 1427.4 kg/m3
390 K, 2000 kPa	1427.1 kg/m3
390 K, 3000 kPa	1433.2 kg/m3 and 1433.1 kg/m3
390 K, 3010 kPa	1433.3 kg/m3
390 K, 3990 kPa	1438.8 kg/m3 and 1438.7 kg/m3 and 1438.9 kg/m3
390 K, 5000 kPa	1444.3 kg/m3 and 1444.1 kg/m3 and 1444.4 kg/m3
390 K, 10000 kPa	1468.4 kg/m3 and 1468.3 kg/m3 and 1468.5 kg/m3
390 K, 14990 kPa	1488.9 kg/m3 and 1489 kg/m3
390 K, 15000 kPa	1488.9 kg/m3
390 K, 19990 kPa	1506.8 kg/m3 and 1507 kg/m3
390 K, 20000 kPa	1507 kg/m3
390 K, 25000 kPa	1523 kg/m3 and 1522.9 kg/m3 and 1523.1 kg/m3
390 K, 29990 kPa	1537.6 kg/m3
390 K, 30000 kPa	1537.6 kg/m3 and 1537.4 kg/m3
390 K, 35000 kPa	1550.9 kg/m3 and 1550.8 kg/m3 and 1551 kg/m3
390 K, 40000 kPa	1563.2 kg/m3 and 1563.1 kg/m3 and 1563.3 kg/m3
390 K, 44990 kPa	1574.8 kg/m3
390 K, 45000 kPa	1574.7 kg/m3 and 1574.6 kg/m3
390 K, 49980 kPa	1585.3 kg/m3
390 K, 49990 kPa	1585.5 kg/m3
410 K, 990 kPa	1370.5 kg/m3
410 K, 3990 kPa	1392.5 kg/m3
410 K, 4000 kPa	1392.7 kg/m3
410 K, 4990 kPa	1399.3 kg/m3
410 K, 10000 kPa	1427.9 kg/m3
410 K, 15000 kPa	1451.6 kg/m3 and 1451.5 kg/m3
410 K, 19990 kPa	1471.8 kg/m3
410 K, 20000 kPa	1472 kg/m3
410 K, 24990 kPa	1489.9 kg/m3 and 1489.7 kg/m3
410 K, 29990 kPa	1506 kg/m3
410 K, 30000 kPa	1505.8 kg/m3
410 K, 34990 kPa	1520.6 kg/m3
410 K, 35000 kPa	1520.5 kg/m3
410 K, 40000 kPa	1534 kg/m3 and 1533.9 kg/m3
410 K, 45000 kPa	1546.4 kg/m3
410 K, 45010 kPa	1546.3 kg/m3
410 K, 50000 kPa	1558 kg/m3
410 K, 50020 kPa	1557.9 kg/m3
430 K, 500 kPa	1310.6 kg/m3 and 1310.4 kg/m3
430 K, 1000 kPa	1316.1 kg/m3 and 1315.9 kg/m3 and 1316.2 kg/m3
430 K, 2000 kPa	1326.2 kg/m3 and 1326 kg/m3 and 1326.3 kg/m3
430 K, 3000 kPa	1335.6 kg/m3 and 1335.4 kg/m3 and 1335.7 kg/m3
430 K, 4000 kPa	1344.3 kg/m3 and 1344.1 kg/m3
430 K, 4990 kPa	1352.1 kg/m3 and 1352.4 kg/m3
430 K, 5000 kPa	1352.4 kg/m3
430 K, 9990 kPa	1386.6 kg/m3 and 1386.4 kg/m3
430 K, 14990 kPa	1413.9 kg/m3
430 K, 15000 kPa	1413.8 kg/m3 and 1414 kg/m3
430 K, 19990 kPa	1436.8 kg/m3 and 1437 kg/m3
430 K, 20000 kPa	1436.9 kg/m3
430 K, 24990 kPa	1456.9 kg/m3
430 K, 25000 kPa	1456.9 kg/m3 and 1456.8 kg/m3
430 K, 29990 kPa	1474.6 kg/m3
430 K, 30000 kPa	1474.7 kg/m3
430 K, 30010 kPa	1474.5 kg/m3
430 K, 34990 kPa	1490.4 kg/m3
430 K, 35000 kPa	1490.6 kg/m3
430 K, 40000 kPa	1505.2 kg/m3 and 1505 kg/m3
430 K, 40010 kPa	1505.2 kg/m3
430 K, 45000 kPa	1518.6 kg/m3 and 1518.4 kg/m3
430 K, 49960 kPa	1530.9 kg/m3
430 K, 49990 kPa	1531 kg/m3
430 K, 50000 kPa	1530.9 kg/m3
450 K, 1990 kPa	1269.4 kg/m3
450 K, 3980 kPa	1292.6 kg/m3
450 K, 4000 kPa	1292.9 kg/m3
450 K, 4990 kPa	1302.9 kg/m3 and 1303 kg/m3
450 K, 10000 kPa	1344.2 kg/m3 and 1344.1 kg/m3 and 1344.3 kg/m3
450 K, 14980 kPa	1375.6 kg/m3
450 K, 14990 kPa	1375.9 kg/m3
450 K, 15000 kPa	1375.9 kg/m3
450 K, 19990 kPa	1401.9 kg/m3 and 1401.7 kg/m3
450 K, 25000 kPa	1424.1 kg/m3 and 1424 kg/m3
450 K, 29990 kPa	1443.6 kg/m3 and 1443.4 kg/m3
450 K, 30000 kPa	1443.6 kg/m3
450 K, 34990 kPa	1460.8 kg/m3 and 1461 kg/m3
450 K, 35000 kPa	1461 kg/m3
450 K, 39990 kPa	1476.8 kg/m3
450 K, 40000 kPa	1476.6 kg/m3 and 1476.8 kg/m3
450 K, 45000 kPa	1491.2 kg/m3 and 1491.1 kg/m3
450 K, 49980 kPa	1504.5 kg/m3
450 K, 49990 kPa	1504.5 kg/m3
450 K, 50000 kPa	1504.4 kg/m3
470 K, 5010 kPa	1250.5 kg/m3
470 K, 9990 kPa	1300.6 kg/m3 and 1300.8 kg/m3
470 K, 10010 kPa	1300.7 kg/m3
470 K, 14990 kPa	1337.3 kg/m3
470 K, 15000 kPa	1337.3 kg/m3 and 1337.5 kg/m3
470 K, 19990 kPa	1366.6 kg/m3
470 K, 20000 kPa	1366.7 kg/m3 and 1366.9 kg/m3
470 K, 25000 kPa	1391.4 kg/m3 and 1391.3 kg/m3 and 1391.5 kg/m3
470 K, 29990 kPa	1412.7 kg/m3
470 K, 30000 kPa	1412.8 kg/m3 and 1412.9 kg/m3
470 K, 34990 kPa	1431.7 kg/m3 and 1431.8 kg/m3
470 K, 35010 kPa	1431.7 kg/m3
470 K, 39990 kPa	1448.8 kg/m3
470 K, 40000 kPa	1448.7 kg/m3
470 K, 44990 kPa	1464.2 kg/m3 and 1464.1 kg/m3
470 K, 45000 kPa	1464.3 kg/m3
470 K, 49990 kPa	1478.4 kg/m3
470 K, 50000 kPa	1478.6 kg/m3
470 K, 50010 kPa	1478.5 kg/m3

— the NIST ThermoML archive (doi:10.1021/je5002686)
